From US9913817B2, “Methods for preventing or reducing colon carcinogenesis” (Nogra Pharma Limited, priority 2008, dated 2018)

Assays:
Format in all cases: cell-based
HCT116 A2.1 cells [1] = experiment: EGFP-based mutation rate / replication fidelity assay (Example 3)
Protocol: A EGFP-based assay to determine the changes in mutation rate upon incubation with various concentrations of the compounds was used to test whether compounds improve the replication fidelity. Briefly, 1×10^3 EGFP negative HCT116 A2.1 cells were sorted into 24-well plates on a FACS Aria. 24 hours later cells were treated with the compounds for a period of 7 days and the mutant fraction was measured by flow cytometry.

HCT116 A2.1 cells [2] = experiment: EGFP-based mutation rate assay at a (CA)13 repeat (Example 4); conditions: FIG. 4
Protocol: A EGFP-based assay similar to Example 3 was used to determine the changes in mutation rate upon incubation with various concentrations of disclosed compounds and to test whether the compounds improve the replication fidelity. A EGFP based assay was used to determine the changes in mutation rate at a (CA)13 repeat upon incubation with various concentrations of the compounds. Briefly, 1×10^3 EGFP negative HCT116 A2.1 cells were sorted into 24-well plates on a FACS Aria. 24 hours later cells were treated with the compounds for a period of 7 days. The total cell number (c) and the EGFP-positive fraction (mutant fraction (MF)) were analyzed by flow cytometry. The mutation rate (m/(CA)13/generation (gen) was estimated by m=MF/(gen+1) and gen=log 2(c/1000×cloning efficiency). The transient mutant (M1) and definitive mutant (M2) cells were distinguished.

HCT116 cells = experiment: Cell cycle analysis by BrdU staining, HCT116; conditions: 10 mM-40 mM; 72 hour treatment
Protocol: BrdU staining was used to analyze cell cycle changes in HCT116 and HT29 cells upon 72 hour treatment with compound 39. Data represent the mean values of 3 independent experiments (* indicates a p<0.05 compared to control)

[3] = system: superoxide (O2−) released by activated neutrophils (PMN); experiment: Superoxide scavenging, O2− assay with PMA-activated neutrophils, 90 min time course (Example 2); conditions: at the investigated concentrations; 100 nM PMA; measured every 15 min for 90 min; FIG. 2A/2B
Protocol: Compounds 14 and 34 were tested for their potential to scavenge superoxide (O2^−) released by activated neutrophils (PMN) using a standardized O2^− assay, similar to Example 1. Activated neutrophils (PMN) were used as O2^− donors. Briefly, 1×10^6 freshly isolated neutrophils were activated with 100 nM phorbol-myristate-acetate (PMA). The O2^− release was measured every 15 min for a 90 min period by lucigenin amplified chemiluminescence on a luminometer. Either non-activated PMNs or activated PMNs incubated with superoxide dismutase (2000 U/ml, SOD) was used as a control. Experiments were carried out in triplicates

SMILES: CCOC(Cc1ccc(N)cc1)C(=O)O (racemic) [compound 39, (±)-2-ethoxy-3-(4′-aminophenyl) propionic acid]
- cell growth (in words) (HCT116 A2.1 cells [1]; 20 mM, 7 days): reduced cell growth
- effect on M1 (in words) (HCT116 A2.1 cells [1]; 20 mM, FIG. 3C, comparable to the effect of aspirin): increase of M1
- effect on mutant fraction M1 or M2 (in words) (HCT116 A2.1 cells [1]; 7 days, FIG. 3C): did not reduce the mutant fraction M1 or M2
- number of M1 (transient mutant) cells (in words) (HCT116 A2.1 cells [2]; 10 mM up to 40 mM, p<0.05): significantly lowered the number of M1 cells
- permanent mutant M2 population (in words) (HCT116 A2.1 cells [2]; 40 mM): significant reduction
- cell cycle distribution (in words) (HCT116 cells): did not induce a significant change

SMILES: COc1ccc(N)cc1C(=O)NO [compound 14]
- superoxide scavenging properties (in words) [3]: significant scavenging properties

SMILES: CC1(C)OC(=O)c2cc(N)ccc2O1 [compound 28]
- changes in mutation rate (in words) (HCT116 A2.1 cells [1]; concentrations up to 1 mM, FIG. 3B): does not appear to cause significant changes
